Counter-ions that a name gives are not always drawn. ± gives the standard deviation of the averaged measurements.
Legend:
[1] = test system: Homo sapiens (human subject panel, olfactory perception); assay: perceived odor intensity rating (rating 0-100); higher = stronger perceived smell
Summary of the method: (§1)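 For each molecule, 1 mL diluted in paraffin oil was sniffed at high and low concentrations by 55 healthy human subjects aged 18–50, with the six lowest performers excluded. Presentation order was randomized over ten visits of 100 stimuli. Subjects who reported smelling a stimulus moved a computerized slider from its starting position of 50, and positions were converted to a 0–100 scale. The familiarity, intensity and pleasantness ratings are averaged across subjects.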

[2] = test system: Homo sapiens (human subject panel, olfactory perception); assay: perceived odor familiarity rating (rating 0-100); higher = more familiar
Summary of the method: as §1

[3] = test system: Homo sapiens (human subject panel, olfactory perception); assay: perceived odor pleasantness rating (rating 0-100); higher = more pleasant
Summary of the method: as §1

[4] = odor dilution in paraffin oil: 1/100,000
[5] = odor dilution in paraffin oil: 1/10,000,000
[6] = odor dilution in paraffin oil: 1/1,000
[7] = odor dilution in paraffin oil: 1/10

Row | SMILES | perceived odor intensity rating [1, 4] | perceived odor intensity rating [1, 5] | perceived odor familiarity rating [2, 4] | perceived odor familiarity rating [2, 5] | perceived odor pleasantness rating [3, 4] | perceived odor pleasantness rating [3, 5] | perceived odor intensity rating [1, 6] | perceived odor familiarity rating [2, 6] | perceived odor pleasantness rating [3, 6] | perceived odor intensity rating [1, 7] | perceived odor familiarity rating [2, 7] | perceived odor pleasantness rating [3, 7]
1 | CCSCC [Diethyl sulfide] | 62.5 ± 32 | 19.7 ± 27 | 37.5 ± 27 | 42 ± 27 | 24.2 ± 22 | 43.8 ± 23 | – | – | – | – | – | –
2 | O=C1CCc2ccccc2O1 [Dihydrocoumarin] | 35.5 ± 30 | – | 42.2 ± 30 | – | 64.6 ± 22 | – | 70.9 ± 19 | 59.7 ± 29 | 64.8 ± 23 | – | – | –
3 | CCCCCC1=C(C)CCC1=O [Dihydrojasmone] | 44.3 ± 28 | – | 42.9 ± 29 | – | 48.5 ± 24 | – | 62.7 ± 28 | 48.1 ± 28 | 44.5 ± 26 | – | – | –
4 | CNc1ccccc1C(=O)OC [Dimethyl anthranilate] | 17.1 ± 21 | – | 31.2 ± 29 | – | 53.3 ± 26 | – | 44.2 ± 31 | 53 ± 28 | 63.1 ± 23 | – | – | –
5 | CSSSC [Dimethyl trisulfide (replicate)] | 80.1 ± 22 | 62.9 ± 29 | 59.2 ± 32 | 50.5 ± 33 | 18.4 ± 22 | 26.5 ± 23 | – | – | – | – | – | –
6 | CSSSC [Dimethyl trisulfide] | 77.6 ± 23 | 63 ± 28 | 52.5 ± 34 | 49.1 ± 34 | 22.3 ± 24 | 28.1 ± 25 | – | – | – | – | – | –
7 | c1ccc(Oc2ccccc2)cc1 [Diphenyl ether] | 27 ± 28 | – | 42.4 ± 29 | – | 46.5 ± 22 | – | 55.1 ± 29 | 40.4 ± 28 | 49.9 ± 26 | – | – | –
8 | CCOC(=O)c1ccco1 [Ethyl 2-furoate] | – | – | – | – | – | – | 40.3 ± 34 | 36.6 ± 29 | 42.8 ± 24 | 87.4 ± 14 | 47.9 ± 33 | 32 ± 28
9 | CCOC(=O)C(C)CC (stereo not given) [Ethyl 2-methylbutyrate] | 55.4 ± 28 | – | 67.3 ± 25 | – | 77.9 ± 20 | – | 76.5 ± 18 | 69.6 ± 30 | 75.1 ± 24 | – | – | –
10 | CCCC(C)C(=O)OCC (stereo not given) [Ethyl 2-methylpentanoate (replicate)] | 50.5 ± 29 | – | 52 ± 27 | – | 64.9 ± 20 | – | 52.1 ± 29 | 59.6 ± 31 | 72.2 ± 18 | – | – | –
11 | CCCC(C)C(=O)OCC (stereo not given) [Ethyl 2-methylpentanoate] | 49.4 ± 24 | – | 50.8 ± 28 | – | 64.9 ± 21 | – | 67.9 ± 22 | 67.2 ± 24 | 76.8 ± 20 | – | – | –
12 | CCOC(=O)CCSCc1ccco1 [Ethyl 3-(furfurylthio)propionate] | 77.8 ± 18 | 58.7 ± 28 | 50.2 ± 32 | 41.6 ± 32 | 19.6 ± 22 | 32.3 ± 24 | – | – | – | – | – | –
13 | CCOC(=O)C1OC1(C)c1ccccc1 (stereo not given) [Ethyl 3-methyl-3-phenylglycidate] | 48.2 ± 32 | 13.3 ± 28 | 48 ± 30 | 28.4 ± 28 | 59.9 ± 25 | 53.4 ± 23 | – | – | – | – | – | –
14 | CCCCC(=O)OCC [Ethyl Valerate] | 50.6 ± 28 | – | 58.9 ± 30 | – | 73.6 ± 20 | – | 75.2 ± 22 | 67.1 ± 33 | 71.4 ± 26 | – | – | –
15 | CCOc1cc(C=O)ccc1O [Ethyl Vanillin] | – | – | – | – | – | – | 71 ± 26 | 77.3 ± 26 | 83.9 ± 17 | 75.3 ± 20 | 79.8 ± 22 | 84.3 ± 20
16 | CCOC(=O)c1ccccc1 [Ethyl benzoate] | 38.4 ± 33 | – | 43.1 ± 30 | – | 58.6 ± 24 | – | 66.2 ± 24 | 50.5 ± 32 | 57.1 ± 25 | – | – | –
17 | CCCCCCCCCC(=O)OCC [Ethyl decanoate] | – | – | – | – | – | – | 21.2 ± 24 | 38.9 ± 27 | 49.6 ± 24 | 59.8 ± 30 | 50.9 ± 30 | 58.2 ± 26
18 | CCOC=O [Ethyl formate] | – | – | – | – | – | – | 16.5 ± 26 | 24.9 ± 20 | 48.2 ± 22 | 51.6 ± 35 | 43.9 ± 32 | 36 ± 26

Row | SMILES | perceived odor intensity rating [1, 4] | perceived odor intensity rating [1, 5] | perceived odor familiarity rating [2, 4] | perceived odor familiarity rating [2, 5] | perceived odor pleasantness rating [3, 4] | perceived odor pleasantness rating [3, 5] | perceived odor intensity rating [1, 6] | perceived odor familiarity rating [2, 6] | perceived odor pleasantness rating [3, 6] | perceived odor intensity rating [1, 7] | perceived odor familiarity rating [2, 7] | perceived odor pleasantness rating [3, 7]
19 | CCCCCCC(=O)OCC [Ethyl heptanoate] | 34.8 ± 28 | – | 44.3 ± 29 | – | 55.9 ± 25 | – | 69.1 ± 23 | 59.4 ± 27 | 62.6 ± 26 | – | – | –
20 | CCCCCCCCCCCCCC(=O)OCC [Ethyl myristate] | – | – | – | – | – | – | 20.7 ± 24 | 38.1 ± 33 | 42.8 ± 25 | 39.1 ± 28 | 40.5 ± 27 | 50.6 ± 26
21 | CCCCCCCC(=O)OCC [Ethyl octanoate] | 46.7 ± 31 | – | 52 ± 29 | – | 61.9 ± 22 | – | 54.7 ± 29 | 52.7 ± 33 | 66.2 ± 22 | – | – | –
22 | C/C=C/C=C/C(=O)OCC [Ethyl sorbate] | 26.1 ± 27 | – | 41.5 ± 30 | – | 54.8 ± 20 | – | 75.4 ± 17 | 53.1 ± 29 | 35.3 ± 26 | – | – | –
23 | CCCCCCCCCCCCCCCCCC(=O)OCC [Ethyl stearate] | – | – | – | – | – | – | 17 ± 17 | 33.1 ± 24 | 43.4 ± 15 | 46.8 ± 33 | 38.3 ± 34 | 45.7 ± 25
24 | CCCCCCCCCCC(=O)OCC [Ethyl undecanoate] | – | – | – | – | – | – | 38.8 ± 28 | 46.8 ± 28 | 50.1 ± 28 | 69.9 ± 21 | 49.9 ± 34 | 52.8 ± 26
25 | C=CCc1ccc(OC(C)=O)c(OC)c1 [Eugenyl Acetate] | 21.1 ± 28 | – | 37.7 ± 30 | – | 58 ± 25 | – | 52.3 ± 30 | 61.4 ± 28 | 63.9 ± 23 | – | – | –
26 | O=C(O)/C=C/C(=O)O [Fumaric acid] | – | – | – | – | – | – | 17.1 ± 23 | 44 ± 31 | 49.5 ± 25 | 58.8 ± 26 | 51.9 ± 32 | 36.9 ± 24
27 | OCc1ccco1 [Furfuryl alcohol] | 22.8 ± 22 | – | 33.6 ± 28 | – | 44.6 ± 24 | – | 56.7 ± 29 | 50.3 ± 27 | 39.6 ± 23 | – | – | –
28 | NCC(=O)O [Glycine] | – | – | – | – | – | – | 17.9 ± 23 | 40.8 ± 27 | 53.3 ± 25 | 50 ± 28 | 47.3 ± 28 | 59.4 ± 23
29 | COc1ccccc1O [Guaiacol (replicate)] | 67.4 ± 29 | 54.8 ± 28 | 47.2 ± 30 | 44 ± 30 | 37.6 ± 25 | 36.9 ± 19 | – | – | – | – | – | –
30 | COc1ccccc1O [Guaiacol] | 61.8 ± 28 | 48.6 ± 32 | 47.3 ± 31 | 39.4 ± 28 | 41.6 ± 26 | 40.9 ± 25 | – | – | – | – | – | –
31 | COc1ccccc1OC(=O)Cc1ccccc1 [Guaiacyl phenylacetate] | – | – | – | – | – | – | 60.8 ± 28 | 45.1 ± 32 | 37.2 ± 28 | 71.5 ± 22 | 58.5 ± 28 | 42.2 ± 29
32 | CCCCCCC(=O)O [Heptanoic Acid] | 49 ± 32 | – | 36.5 ± 28 | – | 30.4 ± 25 | – | 77.5 ± 23 | 43.8 ± 31 | 21.5 ± 20 | – | – | –
33 | CCCCCC=O [Hexanal] | 78.2 ± 21 | 15 ± 16 | 41.5 ± 33 | 29 ± 26 | 20.4 ± 20 | 47.2 ± 18 | – | – | – | – | – | –
34 | CCCCCCOC=O [Hexyl Formate] | 33.9 ± 30 | – | 35.5 ± 28 | – | 42.2 ± 23 | – | 60.7 ± 29 | 42.8 ± 32 | 49 ± 28 | – | – | –
35 | CCCCCCOC(=O)c1ccccc1 [Hexyl benzoate (replicate)] | – | – | – | – | – | – | 35.9 ± 32 | 36.7 ± 29 | 40.3 ± 23 | 71.5 ± 26 | 38.4 ± 28 | 31.9 ± 24

From the supplement of paper PMC4977894
